Here are results for one molecule from US20150143553A1, “Methods And Compositions Comprising A Drosophila Model Of Amyotrophic Lateral Sclerosis” (priority 2013, published 2015).

One data set deals with ALS patients. The conditions noted are these: ALS patients administered pioglitazone; cited from earlier work.
Data set [1] relates to Larvae expressing TDPWT in motor neurons. Description: Larval turning assay, D42>TDPWT. It counts as in vivo, Drosophila. The conditions noted are these: 1 μM pioglitazone in food; DMSO 14.5+/−1 sec. As to the method: (§1) Assays were performed as disclosed herein. Briefly, wandering third instar larvae were placed on a grape juice plate at room temperature. After becoming acclimated, crawling larvae were gently turned onto their backs (ventral side up) and monitored until they were able to turn back (dorsal side up) and continue their forward movement. The amount of time that it took each larva to complete this task was recorded. Twenty to thirty larvae were used per genotype. Student's t-test was performed to assess statistical significance.
(§2) Next an ideal drug concentration was determined using a more sensitive and disease relevant assay that measures neuromuscular coordination, namely larval turning (see Materials and Methods for details). Larvae expressing TDPWT or TDPG298S in motor neurons (D42>TDP-43) were raised on food containing either 1, 5, 10, 25 μM pioglitazone or DMSO and assayed for their locomotor ability using larval turning assays.
(§3) Assays were performed as described herein (33, 35). Briefly, wandering third instar larvae were placed on room temperature grape juice plates, allowed to acclimate then gently turned ventral side up. The time required for larvae to flip back to dorsal side up and start moving forward was noted as the larval turning time. At least 30 larvae per genotype and condition were tested.

The subject of data set [2] is Drosophila larvae expressing wild-type TDP-43 in motor neurons. Kind of data set: Drug screen: rescue of lethality caused by wild-type TDP-43 expression in motor neurons (D42 Gal4). It is filed as in vivo. The conditions noted are these: for Av. % rescue (number of rescued adults/total number of pupae × 100%): TDP^WT.
The subject of a further data set is D42>TDPWT larvae. Description: Global metabolomic profiling, D42>TDPWT larvae. It is filed as in vivo, Drosophila. Particulars: 1 μM pioglitazone. The procedure:
To gain insight into the mechanism by which pioglitazone is neuroprotective, a global metabolomic approach was taken using larvae expressing TDP-43 in motor neurons (D42>TDP-43) and D42>w1118 controls raised on either 1 μM pioglitazone, DMSO or regular food. To determine specific metabolites that were restored by pioglitazone in the context of TDPWT, the metabolic profiles of D42>TDPWT larvae raised on drug food versus DMSO were compared and 111 alterations were found among a total of 572 metabolites detected in the samples. […] This led to the identification of 28 metabolites altered by both pioglitazone and TDPWT (Table 2). […] In addition, 6 metabolites further altered by pioglitazone in the same direction as that of TDP-43 were found, consistent with a potential worsening effect. Among the 28 metabolites some were also affected by DMSO alone as determined by comparing the metabolic profiles of D42>TDPWT larvae raised on DMSO and D42>TDPWT larvae raised on regular food.
D42 Gal4 virgin females were crossed with UAS TDP-43 YFP or w1118 males and raised on regular food (RF), DMSO or 1 μM Pioglitazone (PGZ) containing food. 50-60 third instar larvae (approximately 50-60 mg) were collected and flash frozen in liquid nitrogen. Samples were made in 5 replicates. Global metabolomic study was performed following standard protocols by Metabolon, INC (Durham, N.C.). Briefly, protein samples were divided into four fractions: one for analysis by UPLC-MS/MS with positive ion mode electrospray ionization, one for analysis by UPLC-MS/MS with negative ion mode electrospray ionization, one for analysis by GC-MS, and one sample was reserved for backup. Raw data was extracted, peak-identified and QC processed using Metabolon's hardware and software. Compounds were identified by comparison to library entries of purified standards or recurrent unknown entities. Peaks were quantified using area-under-the-curve. Following normalization to Bradford protein concentration data were log transformed. Missing values for a given metabolite were imputed with the minimum observed value for each compound based on the assumption that they were below the limit of instrument detection sensitivity. For studies spanning multiple days, a data normalization step was performed to correct variation resulting from instrument inter-day tuning differences.
Student's T test was used for statistical analysis of larval turning experiments and Log-rank test was used for survival analyses. For metabolomics standard statistical analyses were performed in ArrayStudio on log transformed data. For those analyses not standard in ArrayStudio, the programs R (cran.r-project.org/) or JMP (jmp.com) were used. Welch's two-sample t-test and matched pairs t-test were used to compute p-values. False discovery rates were calculated as described (69).

Data set [3] deals with wild-type control larvae (D42>w1118). Description: Larval turning assay, wild-type control larvae. It is filed as in vivo, Drosophila. The conditions noted are these: 1 μM pioglitazone. The procedure: as §2, §3
Data set [4] has as its system Larvae expressing TDPG298S in motor neurons. Kind of data set: Larval turning assay, D42>TDPG298S. It is filed as in vivo, Drosophila. The conditions noted are these: 1 μM pioglitazone in food; DMSO 25.8+/−1.8 sec. As to the method:
as §1, §2, §3

Data set [5] concerns Drosophila larvae expressing G298S TDP-43 in motor neurons. Kind of data set: Drug screen: rescue of lethality caused by G298S TDP-43 expression in motor neurons (D42 Gal4). It is filed as in vivo. Particulars: TDP^G298S. The text has this: […] Larvae expressing TDP-43 (wild type or mutant, as shown) are raised on drug containing food.
[…] Larvae expressing TDP-43 (wt or mutant) were raised on drug containing food.
Using a Drosophila model of ALS based on TDP-43 that recapitulates several aspects of the disease pathophysiology (33, 35), a drug screen aimed at identifying FDA approved compounds with neuroprotective potential in vivo were designed (FIG. 37A). […] This phenotype was used to screen for drug candidates with therapeutic potential as determined by their ability to rescue pupal lethality and produce viable adults with extended wings (FIG. 37A).
Larvae expressing TDP-43 in motor neurons (D42>TDP-43) were raised on fly food containing different amounts of drug (1, 10 and 25 μM, see Materials and Methods for details) or Dimethyl Sulfoxide (DMSO) as vehicle control (FIG. 37B, C).
UAS TDP-43 males were crossed with D42-Gal4 female virgins on fly food containing either DMSO or pioglitazone. For DMSO controls, the same volume of DMSO as the corresponding drug concentration was added. Bromophenol blue was added to a final concentration of approximately 0.02% to ensure homogeneity. Crosses were made on drug food with 3 female virgins and 2 males in each vial, and were maintained at 25° C. unless noted. The parents were discarded after 5-7 days then the vials were screened for adult progeny with straight wings from day 14 to day 25. All adults were screened for TDP-43 expression by visualizing the YFP tag. Total number of pupae was counted on day 25. Percent survival was calculated using the formula (total number of straight-winged adults/total number of pupae)×100. All experiments were performed in triplicate.

Turning to `CCc1ccc(CCOc2ccc(CC3SC(=O)NC3=O)cc2)nc1` (stereo not drawn) [Pioglitazone], in the data set on ALS patients, the “hazard ratio for mortality” value is on record as “increase in hazard ratio for mortality”. Further, the larval turning time was 9.2 ± 0.7 s in data set [1] and 17.3 ± 1.1 s in data set [4]. In addition, the “Av. % rescue (number of rescued adults/total number of pupae × 100%)” value in data set [2] (PGZ 1 μM) is 15.2%; in data set [2] (PGZ 10 μM) it was 1.7%; in data set [2] (PGZ 25 μM) it was 0.8%; in data set [5] (PGZ 1 μM) it was 19.4%; in data set [5] (PGZ 10 μM) it was 15.0%; in data set [5] (PGZ 25 μM), 9.7%. Moreover, the “Preliminary rescue result: adults with normal wings” value in data set [2] (transgene WT2, 50 μM in fly food) is listed as 1 Adult Normal Wings Adults. Also, the “Rescue Effect” value in data set [2] (transgene wt, primary screening (50 μM), out of 15-20 pupae) is 1 adults. For the same molecule, in the data set with D42>TDPWT larvae, the “metabolites altered by both pioglitazone and TDPWT” value came to 28. The “metabolites altered in opposite direction compared to TDPWT (restoration)” value in the data set with D42>TDPWT larvae turned out to be 14. Besides, in the data set on D42>TDPWT larvae, the “metabolites further altered in the same direction as TDP-43 (worsening)” value was 6. In the data set with D42>TDPWT larvae, the “metabolites similarly affected by pioglitazone and TDPWT (no further change)” value was determined as 8. The “saccharopine level, pioglitazone compared to DMSO” value with D42>TDPWT larvae is 0.67. The “N-acetylglutamine level, pioglitazone versus DMSO” value in the data set on D42>TDPWT larvae (Pvalue<0.05) is recorded as 0.74. Besides, the “4-hydroxybutyrate (GHB) level, pioglitazone compared to DMSO” value in the data set on D42>TDPWT larvae (Pvalue=0.04) is given as 0.41. Besides, the “metabolite alterations, drug food versus DMSO” value in the data set on D42>TDPWT larvae (among a total of 572 metabolites) is reported as 111. In addition, in the data set on D42>TDPWT larvae (not significant), the “pyruvate level, pioglitazone compared to DMSO” value was 0.68. The “effect on larval turning time in control larvae” value in data set [3] is recorded as “no effect”.
